The text below walks through data of US8580733B2, “Site-specific monoconjugated insulinotropic GLP-1 peptides” (Bio-Ker SRL, priority 2008, dated 2013).

Data set [1] deals with T1, DPP-IV (Dipeptidyl peptidase IV from porcine kidney) (Sus scrofa, UniProt P22411).
T1 construct: purchased Sigma; host or cells: porcine kidney (tissue-derived)
As to the kind of experiment: In vitro stability to DPP-IV digestion. In kind it is in vitro ADME. The following applies: for Degradation % at 24 h: peptide 0.1 mg/ml in PBS. How it is done: The enzymatic degradation was calculated from His-Ala title of each sample, as shown for example in FIG. 1

A further data set deals with diabetic (db/db) mice. The data set can be described thus: Oral glucose tolerance test in diabetic mice. In kind it is in vivo. The following applies: for Tglu<100 mg/dl (time to lower the blood glucose level under 100 (±5) mg/dl) / Glumax (maximum blood glucose level) / HD% control (total hypoglycemic degree as percent of saline control): 100 μg/kg 30 min before oral glucose […]; for Glumax (maximum blood glucose level): first 180 min; for HD% control (total hypoglycemic degree as percent of saline control): AUC 0-180 min vs saline. How it is done: Food was withdrawn for an 18-h period prior to and for 3 hours after oral administration of a glucose solution (1.5 g/kg body weight); food was again […] 6 hours after glucose administration. 40 μg/ml of products to be tested and negative control (phosphate buffered saline) were administered by subcutaneous injection of a volume of 2.5 ml/kg body weight, 30 minutes prior glucose administration. Blood samples were collected from the tail vein of conscious mice before the injection and at 15, 30, 60, 120, 180, 240, 300, 1440 min post injection and glucose concentration was measured by gluco tester Ascensia Elite (Bayer).

Ends that are not written are not given here.

T1 sequence (P22411 whole entry): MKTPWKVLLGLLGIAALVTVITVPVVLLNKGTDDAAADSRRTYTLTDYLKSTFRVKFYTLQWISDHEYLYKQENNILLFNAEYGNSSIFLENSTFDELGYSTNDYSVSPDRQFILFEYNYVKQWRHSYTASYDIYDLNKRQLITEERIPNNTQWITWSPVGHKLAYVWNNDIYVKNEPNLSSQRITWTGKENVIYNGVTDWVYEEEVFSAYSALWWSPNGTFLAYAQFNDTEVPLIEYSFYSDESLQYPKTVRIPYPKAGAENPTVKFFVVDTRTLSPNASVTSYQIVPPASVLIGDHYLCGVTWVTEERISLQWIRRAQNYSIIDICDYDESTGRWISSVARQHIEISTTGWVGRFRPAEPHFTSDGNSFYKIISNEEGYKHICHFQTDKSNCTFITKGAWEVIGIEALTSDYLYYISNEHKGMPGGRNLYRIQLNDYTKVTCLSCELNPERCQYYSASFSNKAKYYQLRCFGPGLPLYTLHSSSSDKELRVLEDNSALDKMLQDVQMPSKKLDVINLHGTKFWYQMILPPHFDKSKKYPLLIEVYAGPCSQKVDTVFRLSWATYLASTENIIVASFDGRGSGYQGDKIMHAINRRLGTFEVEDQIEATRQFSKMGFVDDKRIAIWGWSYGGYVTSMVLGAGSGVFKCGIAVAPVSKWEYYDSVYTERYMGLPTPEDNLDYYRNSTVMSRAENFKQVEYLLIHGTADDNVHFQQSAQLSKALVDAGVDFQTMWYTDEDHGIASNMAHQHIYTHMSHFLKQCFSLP

Take “HAEGTFTSDVSSYLEGNAAKEFIQWLVKGR-NH2 [GLP-1-amide-Q17N/A24Q]”: the “Degradation % at 24 h” value in data set [1] (DPP-IV 5 U/ml, 37° C.) is recorded as 90%.
On to `CC[C@H](C)[C@H](NC(=O)[C@H](Cc1ccccc1)NC(=O)[C@H](CCC(=O)O)NC(=O)[C@H](CCCCN)NC(=O)[C@H](C)NC(=O)[C@H](C)NC(=O)[C@H](CCC(N)=O)NC(=O)CNC(=O)[C@H](CCC(=O)O)NC(=O)[C@H](CC(C)C)NC(=O)[C@H](Cc1ccc(O)cc1)NC(=O)[C@H](CO)NC(=O)[C@H](CO)NC(=O)[C@@H](NC(=O)[C@H](CC(=O)O)NC(=O)[C@H](CO)NC(=O)[C@@H](NC(=O)[C@H](Cc1ccccc1)NC(=O)[C@@H](NC(=O)CNC(=O)[C@H](CCC(=O)O)NC(=O)[C@H](C)NC(=O)[C@@H](N)Cc1c[nH]cn1)[C@@H](C)O)[C@@H](C)O)C(C)C)C(=O)N[C@@H](C)C(=O)N[C@@H](Cc1c[nH]c2ccccc12)C(=O)N[C@@H](CC(C)C)C(=O)N[C@H](C(=O)N[C@@H](CCCCN)C(=O)NCC(=O)N[C@@H](CCCNC(=N)N)C(N)=O)C(C)C` [GLP-1-amide, GLP-1(7-36)-amide, reference compound], for which the “Degradation % (at 8 h)” value in data set [1] (DPP-IV 5 U/ml, 37° C., at 8 h) is on record as 100 (at 8 h) %. Besides, in data set [1] (DPP-IV, after 8 hours at 37° C.), the “inactivation by cleavage of the N-terminal dipeptide” value is “completely inactivated”.
For the compound “GLP-1-amide-Q17-PEG 20 kDa: GLP-1-amide monopegylated on glutamine 17 with 20 kDa m-PEG-amine by microbial transglutaminase”, the “Degradation % at 24 h” value in data set [1] (DPP-IV 5 U/ml, 37° C.) was found to be 37%. Moreover, in the data set on diabetic (db/db) mice, the “final biological efficacy compared with exenatide” value is on record as “comparable or better than the one displayed by exenatide”, the “Tglu<100 mg/dl (time to lower the blood glucose level under 100 (±5) mg/dl)” value turned out to be 60 min, the “Glumax (maximum blood glucose level)” value worked out at 213.9 mg/dL and the “HD% control (total hypoglycemic degree as percent of saline control)” value was found to be 58.3%.
“GLP-1-amide-Q17N/A24Q-PEG 20 kDa: Q17N/A24Q-GLP-1-amide monopegylated on glutamine 24 with 20 kDa m-PEG-amine by microbial transglutaminase (HAEGTFTSDVSSYLEGNAAKEFIQ(PEG 20 kDa)WLVKGRG-NH2; UniProt P01275 98-128, looked up, variant Q17N A24Q)”: the “Degradation % at 24 h” value in data set [1] (DPP-IV 5 U/ml, 37° C.) is given as 41%.
As to “GLP-1-amide-Q17-PEG 30 kDa: GLP-1-amide monopegylated on glutamine 17 with 30 kDa m-PEG-amine by microbial transglutaminase”, the “Degradation % at 24 h” value in data set [1] (DPP-IV 5 U/ml, 37° C.) is recorded as 25%. Besides, in the data set on diabetic (db/db) mice, the “final biological efficacy compared with exenatide” value is “comparable or better than the one displayed by exenatide”, the “Tglu<100 mg/dl (time to lower the blood glucose level under 100 (±5) mg/dl)” value came out at 60 min, the “Glumax (maximum blood glucose level)” value came to 167.7 mg/dL and the “HD% control (total hypoglycemic degree as percent of saline control)” value is listed as 63.5%.
